Article PMC8424097, “Population Pharmacokinetics of Polymyxin B and Dosage Optimization in Renal Transplant Patients” (Frontiers in Pharmacology, 2021)
Positions of bridges follow the written chain, without caps; N, C: chain ends. Non-standard residues stand in square brackets, D forms with d. Residues, ends and D or L forms follow the SMILES beside them. *: point of attachment. X1 = CC[C@H](C)CCCCC(=O)*; Dab = NCC[C@H](N)C(=O)O

Assays:
[1] = Adverse effects (nephrotoxicity, neurotoxicity, skin) during polymyxin B treatment of renal transplant patients; type: in vivo, human
Protocol: (§1) The following data were collected: age; sex; weight; maintenance doses; time and route of administration; site of infection; microbes; comorbidities; liver function indexes, such as alanine aminotransferase (ALT), aspartate aminotransferase (AST), total bilirubin (TBIL), direct bilirubin (DBIL), and albumin (ALB); and renal function indexes, such as uric acid (UA), blood urea nitrogen (BUN), and CrCL. CrCL was calculated according to the Cockcroft-Gault equation ([Janmahasatian et al., 2005]). CrCL ≤80 ml/min was defined as renal dysfunction, and when the basic CrCL decreased by more than 25%, nephrotoxicity was defined. Risk, injury, failure, loss and end-stage renal disease criteria were used to define acute kidney injury (AKI) in patients ([Bellomo et al., 2004]). Neurotoxicity was defined when any neurological symptoms or signs occurred during polymyxin B treatment, including dizziness, vertigo, visual disturbances, confusion, hallucinations, ataxia, seizures, and facial and peripheral paresthesia. The observed AUC0–24h of patients was calculated by daily dose/CL.

[2] = rats, 6 h after dosing; ref Manchandani et al., 2015; cited from earlier work
Protocol: Polymyxin B is mainly distributed in the kidney, and the renal tissue/serum concentration ratio of polymyxin B was 19.62 at 6 h after dosing in rats ([Manchandani et al., 2015]). Therefore, the variation in polymyxin B accumulation in the kidney might be responsible for the differences in the apparent volume of distribution. In addition t ...

[3] = cited from earlier work
Description: It is well known that nephrotoxicity is the major adverse effect of polymyxin B, with a wide range from 26.9 to 60% ([Plachouras et al., 2009]; [Akajagbor et al., 2013]; [Dubrovskaya et al., 2015]; [Rigatto et al., 2015]). In the present study, however, the incidence of AKI was extremely low, with only five patients showing nephrotoxicity. As polymyxin B-induced nephrotoxicity is a dose-limiting adverse effect, our result seemed to be consistent with the previous finding that patients with renal impairment might have a lower incidence of AKI due to the decreased percentage of tubular reabsorpt ... || The incidence of neurotoxicity was much higher than noted before (62.0 vs 7%) and has become the dose-limiting factor in our study ([Arnold et al., 2007]). […] Considering their similar structures, this mechanism might also fit polymyxin B; therefore, the higher exposure of p ...

[4] = Population pharmacokinetic analysis of polymyxin B in renal transplant patients (plasma, HPLC-MS/MS, Phoenix NLME); type: in vivo, human
Protocol: This prospective study was approved by the Ethics Committee of the Second Xiangya Hospital, Central South University. Informed consent was obtained from all patients or legal representatives of the patients (No. ChiCTR1900022231). Renal transplant patients (aged ≥18 years) who received intravenous polymyxin B (sulfate; Polymyxin B for Injection, China, SPH NO.1 BIOCHEMICAL and PHARMACEUTICAL CO. LTA) for ≥48 h were enrolled. Patients were excluded if they were pregnant, allergic or intolerant to polymyxin B and lacked the necessary data (weight or some renal function index).
All patients accepted at least 3 days of polymyxin B infusion, and the administration interval of polymyxin B was 12 h with an infusion duration of 60–120 min. One to six blood samples (2 mL) were randomly collected 30 min before the sixth dose of polymyxin B and at 0, 0.5, 1, 2, 4, 6, and 8 h after the end of infusion. Blood samples were centrifuged for 10 min (3,400 rpm/min), and the supernatant was immediately stored at −80°C until analysis. A validated high-performance liquid chromatography-tandem mass spectrometry (HPLC-MS/MS) was used to measure the concentrations of polymyxin B1 and polymyxin B2 ([Thomas et al., 2012]). Briefly, a Shim-pack GIST C18 (2.1*100 mm, 3 μm, Shimadzu) column was used. Gradient chromatography was performed with solvent A (0.1% formic acid in water) and solvent B (acetonitrile). The following gradient elution was performed at a total flow of 0.6 ml/min for analyte elution: 10–60% B from 0 to 5 min, 60%–90% B from five to 5.10 min, 90% from 5.10 to 6 min, 90%–10% B from six to 6.10 min, and 10% B from 6.10 to 10.0 min. The elution time was 10 min, and the injection volume was 2 μL. The interday precision was <12%, the intraday precision was <9%, and the accuracy ranged from 96.1 to 110.4%. The limit of quantification was 0.03 mg/L.
as §1
The concentration-time data of polymyxin B were analyzed with a nonlinear mixed effect modeling approach with the Phoenix NLME program (version 8.1. Pharsight, A Certara Company, United States of America). The first-order conditional estimation-extended least square method (FOCE-ELS) was used to develop the PPK model. One- and two-compartment models with linear elimination were evaluated for structure model selection based on the objective function value (OFV) and Akaike information criterion (AIC). The interindividual variability of PK parameters was described by an exponential error model. Residual variability was selected with an additive error model, proportional error model and combined error model. The covariates considered for the modeling included age, weight, ALT, AST, TBIL, DBIL, ALB, BUN, UA, and CrCL. The median of the covariate was used to normalize the covariate, and a stepwise method was used to screen the covariates. […]

[5] = cited from earlier work; remark: listed apart in the source
Protocol: According to the results from previous pharmacokinetics and pharmacodynamics (PK/PD) studies, the bactericidal activity of polymyxin B is best correlated with the area under the concentration-time curve over 24 h in steady state divided by the minimum inhibitory concentration (AUC0–24h/MIC) ([Mohamed et al., 2012]). Moreover, the latest guidelines recommended a target plasma AUC0–24h of 50–100 mg⋅h/L to achieve bactericidal activity against an isolate with an MIC of 2 mg/L (the EUCAST and CLSI breakpoints) ([Tsuji et al., 2019]). However, due to the lack of rigorous PK data, the optimal dosing ... || Monte Carlo simulations (n = 1,000) were conducted using metrics to determine the PTA for fAUC0–24h/MIC ≥20 at various MICs (0.5–2 mg/L) in patients with different renal functions (CrCL: 10–80 ml/min), where f is the unbound fraction of polymyxin B (assumed to be 0.42) ([Sandri et al., 2013b]). The dosages were selected according to the most commonly used regimens in renal transplant patients. The regimens were as follows with a 2 h infusion: a single 50 mg loading dose followed by either 30 mg every 12 h or 40 mg every 12 h, either a loading dose of 75 mg or 100 mg followed by 50 mg every 12 ... || In the present study, a one-compartment model was used to describe the original data, which was consistent with some of the previous studies ([Kubin et al., 2018]; [Manchandani et al., 2018]). […] This difference might be mainly due to impaired renal function in the renal transplant patients in this study (CrCL: 20.89 ml/min, range: 4.29–78.84 ml/min) because we identified CrCL as a significant predic ... || (+ 1 further places)

[6] = of 50 renal transplant patients
[7] = patients of previous studies, ref Kubin et al., 2018, Manchandani et al.

CC[C@H](C)CCCCC(=O)N[C@@H](CCN)C(=O)N[C@H](C(=O)N[C@@H](CCN)C(=O)N[C@H]1CCNC(=O)[C@H]([C@@H](C)O)NC(=O)[C@H](CCN)NC(=O)[C@H](CCN)NC(=O)[C@H](CC(C)C)NC(=O)[C@@H](Cc2ccccc2)NC(=O)[C@H](CCN)NC1=O)[C@@H](C)O [polymyxin B] (X1-[Dab]T[Dab][Dab][Dab][dF]L[Dab][Dab]T; lactam 4-C)
incidence of dermatitis ([1]; 50 renal transplant patients): 34.0%
incidence of neurotoxicity ([1]; 50 renal transplant patients): 62.0%
nephrotoxicity classified as injury (RIFLE) [1, 6]: one
nephrotoxicity classified as risk (RIFLE) [1, 6]: four
patients with dermatitis [1, 6]: Seventeen
patients with dizziness [1, 6]: three
patients with facial and peripheral paresthesia [1, 6]: 29 patients
patients with nephrotoxicity (basic CrCL decreased by more than 25%) [1, 6]: five
patients with neurotoxicity of different degrees [1, 6]: 31 patients
patients with seizures [1, 6]: three
patients with pigmentation ([1]; of 50 renal transplant patients, all disappeared 1 month after withdrawal): Seven
days printed for the nephrotoxicity case classified as injury ([1]; renal transplant patients): 11 days
days printed for the nephrotoxicity cases (all five) ([1]; renal transplant patients): 3 to 11 days
days printed for the nephrotoxicity cases classified as risk ([1]; renal transplant patients): 3 to 7 days
renal tissue/serum concentration ratio [2]: 19.62
incidence of neurotoxicity noted before ([3]; ref Arnold et al., 2007): 7%
incidence of nephrotoxicity (range of previous reports) ([3]; ref Plachouras et al., 2009, Akajagbor et al., 2013, Dubrovskaya et al., 2015, Rigatto et al., 2015): 26.9 to 60%
CL, bootstrap median ([4]; bootstrap, 1000 resamples): 1.17 L/h
V, bootstrap median ([4]; bootstrap, 1000 resamples): 11.98 L
Θ CrCL, bootstrap median ([4]; bootstrap, 1000 resamples): 0.14
mean AUC0–24h (observed) ([4]; calculated by daily dose/CL, mean ± SD, SD): 74600 ± 17810 ng·h/mL
Θ CrCL (exponent for CrCL as a covariate for CL), final model estimate ([4]; final PPK model): 0.14
Vd ([4]; human, intravenous q 12 h, one-compartment PPK model, 151 plasma samples from 50 patients, HPLC-MS/MS, read-out: V, final model estimate): 12.1 L
clearance ([4]; human, intravenous q 12 h, one-compartment PPK model, typical value at CrCL 22.2 ml/min, 151 plasma samples from 50 patients, read-out: CL, final model estimate (converted)): 19.7 mL/min
CL reported in previous one-compartment models [5, 7]: 2.37 to 2.5 L/h
V reported by previous studies [5, 7]: 34.3 to 34.4 L
urinary recovery (range between patients) ([5]; previous study in patients, ref Sandri et al., 2013b): 0.98–17.4%
patients achieving the AUC0–24h target at the recommended dosage ([5]; ref Lakota et al., 2018): 71%
unbound fraction f (assumed) ([5]; used for fAUC0–24h/MIC in the simulations, ref Sandri et al., 2013b): 0.42
